Source: patent US4221682A, “Tetrapeptides having analgesic activity” (American Home Products Corporation, priority 1979, dated 1980)
Like-named read-outs stand apart in the source and are kept apart here. Positions of bridges follow the written chain, without caps; N, C: chain ends. Non-standard residues stand in square brackets, D forms with d. Residues, ends and D or L forms follow the SMILES beside them. Chains are numbered I, II in the order given. NMeF = CN[C@@H](Cc1ccccc1)C(=O)O

What was measured:
mouse vas deferens = conditions: cited from earlier work
guinea pig ileum = conditions: cited from earlier work
rats [1] = conditions: cited from earlier work; for analgesia: injection in the brain ventricle in rats, fully reversible by naloxone
[2] = cited from earlier work; for activity when administered peripherally: peripheral administration
opiate receptor = conditions: brain homogenates; cited from earlier work
mice = conditions: central administration (Baxter et al.); cited from earlier work
rats [3] = conditions: peripheral (i.v.), rats (Bajusz et al.); cited from earlier work
male rats = assay: rat-tail flick test of D'Amour and Smith, intravenous administration; assay type: in vivo; conditions: for Positive Responses/Total Possible Response: all time points
Description: The holders are situated so that a high intensity light beam will shine on the tip of the rats tail. The light beam intensity is adjusted so that normal rats respond by removing their tails from the light stimulus within from 3 to 8 seconds. The average of three time readings for removal of a rats tail from the light beam, taken 20 minutes apart serves as a pre-drug control. The rats are selected for use based upon control readings that agree within one second. The compounds of this invention are then administered intravenously and the test performed at 15, 30 and 60 minutes to determine the animals reaction time which is compared with the control average and tested for significance. The number of rats showing analgesia at each time period out of the total group for each dose administered is noted as a ratio and the number of positive responses observed is relative to the total number of challenges for each group of rats.

[4] = central administration (Pert et al.); cited from earlier work

H-Tyr-Gly-Gly-Phe-Met-OH [methionine-enkephalin]
block of electrically evoked contractions (mouse vas deferens): mimic the ability of morphine to block electrically evoked contractions
block of electrically evoked contractions (guinea pig ileum): mimic the ability of morphine to block electrically evoked contractions
analgesia (rats [1]): induce a profound analgesia
activity when administered peripherally [2]: inactive
inhibition of stereospecific receptor binding of 3H-naloxone (opiate receptor): inhibit the stereospecific receptor binding

H-Tyr-D-Ala-Gly-Phe-D-Leu-OH
antinociceptive and behavioral effects (rats [1]; rats, central administration (Baxter et al.)): exhibit antinociceptive and behavioral effects
antinociceptive and behavioral effects (mice): exhibit antinociceptive and behavioral effects
peripheral analgesic activity ([2]; peripheral administration (Wei et al.; Romer et al.)): exhibit peripheral analgesic activity

H-Tyr-Gly-Gly-Phe-Leu-OH [leucine-enkephalin]
block of electrically evoked contractions (mouse vas deferens): mimic the ability of morphine to block electrically evoked contractions
block of electrically evoked contractions (guinea pig ileum): mimic the ability of morphine to block electrically evoked contractions
analgesia (rats [1]): induce a profound analgesia
activity when administered peripherally [2]: inactive
inhibition of stereospecific receptor binding of 3H-naloxone (opiate receptor): inhibit the stereospecific receptor binding

H-Y[dM]GFP-NH2
analgesic activity (rats [3]): peripheral (i.v.) analgesic activity

CN(C(=O)CNC(=O)[C@@H](CSSC[C@@H](NC(=O)[C@@H](N)Cc1ccc(O)cc1)C(=O)NCC(=O)N(C)[C@@H](Cc1ccccc1)C(N)=O)NC(=O)[C@@H](N)Cc1ccc(O)cc1)[C@@H](Cc1ccccc1)C(N)=O [Example 2, L-Tyrosyl-D-Cysteinyl-Glycyl-N-Methyl-L-Phenylalanyl Amide Disulfide Acetate] (I: H-Y[dC]G[NMeF]-NH2 / II: H-Y[dC]G[NMeF]-NH2; disulfide I:2-II:2)
Respiration normal (number of rats) (male rats; 1.0 mg/kg i.v.): 5/5
dead (number of rats) (male rats; 1.0 mg/kg i.v.): 1/6
No. Analgesic/No. Tested (male rats; 1.0 mg/kg i.v., 15 minutes): 3/6
No. Analgesic/No. Tested (male rats; 1.0 mg/kg i.v., 30 minutes): 2/6
No. Analgesic/No. Tested (male rats; 1.0 mg/kg i.v., 60 minutes): 1/5
Positive Responses/Total Possible Response (male rats; 1.0 mg/kg i.v.): 6/17
Respiration very depressed (number of rats) (male rats; 5.0 mg/kg i.v.): 6/6
dead (number of rats) (male rats; 5.0 mg/kg i.v.): 0/6
No. Analgesic/No. Tested (male rats; 5.0 mg/kg i.v., 15 minutes): 6/6
No. Analgesic/No. Tested (male rats; 5.0 mg/kg i.v., 30 minutes): 5/6
No. Analgesic/No. Tested (male rats; 5.0 mg/kg i.v., 60 minutes): 5/6
Positive Responses/Total Possible Response (male rats; 5.0 mg/kg i.v.): 16/18

H-Tyr-D-Ala-Gly-Phe-Met-NH2
analgesia [4]: long lasting analgesic

H-Tyr-D-Ala-Gly-Phe-D-Met-NH2
analgesic activity (rats [1]; rats, centrally administered (Fredrickson)): produced analgesic activity
